Test results: PubChem BioAssay AID330 (DTP/NCI, 2004)
Where “and” joins values, the source holds several entries; their conditions need not be identical. Equal values may be shown once. Inconclusive results and toxic doses are left out. How the source made its calls: active means survival T/C of 150% or more; inactive means T/C below 125% in these data. Peptide text beside a SMILES is read from it. * marks the point of attachment. OtBu = CC(C)(C)O*

System: P388 leukemia ip, CD2F1 mice, survival T/C
Assay: NCI In Vivo Anticancer Drug Screen. Data for tumor model P388 Leukemia (intraperitoneal) in CD2F1 (CDF1) mice
Details: endpoint: median survival time, higher = longer survival
Outline: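 Mice carrying the transplanted tumor received test compound or vehicle. Survival was recorded in each group, and the value is the treated-group measurement divided by that of the vehicle-treated control group.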

[1] = dose: 60.0 mg/kg/injection, schedule: Q01DX005 (ip), vehicle: saline with Tween-80
[2] = dose: 120.0 mg/kg/injection, schedule: Q01DX005 (ip), vehicle: saline with Tween-80
[3] = dose: 240.0 mg/kg/injection, schedule: Q01DX005 (ip), vehicle: saline with Tween-80
[4] = dose: 25.0 mg/kg/injection, schedule: Q01DX005 (ip), vehicle: Klucel (hydroxypropylcellulose) (HPC)
[5] = dose: 50.0 mg/kg/injection, schedule: Q01DX005 (ip), vehicle: Klucel (hydroxypropylcellulose) (HPC)
[6] = dose: 100.0 mg/kg/injection, schedule: Q01DX005 (ip), vehicle: Klucel (hydroxypropylcellulose) (HPC)
[7] = dose: 200.0 mg/kg/injection, schedule: Q01DX005 (ip), vehicle: Klucel (hydroxypropylcellulose) (HPC)

Measured: T/C

O=C(N/N=C/c1ccccn1)N/N=C/c1ccccn1
inactive: dose: 12.5 mg/kg/injection, schedule: Q01DX009 (ip), vehicle: distilled water + Tween-80 102 % of control | dose: 25.0 mg/kg/injection, schedule: Q01DX009 (ip), vehicle: distilled water + Tween-80 103 % of control | dose: 50.0 mg/kg/injection, schedule: Q01DX009 (ip), vehicle: distilled water + Tween-80 113 % of control | dose: 100.0 mg/kg/injection, schedule: Q01DX009 (ip), vehicle: distilled water + Tween-80 104 % of control

C[Si](C)(C)O/C=C1\CCCCC1=O
inactive: dose: 50.0 mg/kg/injection, schedule: Q01DX009 (ip), vehicle: saline with Tween-80 121 % of control | dose: 100.0 mg/kg/injection, schedule: Q01DX009 (ip), vehicle: saline with Tween-80 106 % of control

CCN(CC)C(=O)N(O)C1CCCCC1
inactive: [1] 105 % of control | [2] 97 % of control | [3] 103 % of control

COc1cc(OC)c2c(c1)C(C1c3cc(C)cc(O)c3C(=O)c3c(OC)cc(OC)cc31)c1cc(C)cc(O)c1C2=O (configuration not stated)
inactive: dose: 12.5 mg/kg/injection, schedule: Q01DX005 (ip), vehicle: Klucel (hydroxypropylcellulose) (HPC) 105 % of control | [4] 100 % of control | [5] 92 % of control | [6] 92 % of control | [7] 96 % of control

COc1cc2cnc(-c3ccccc3)c(O)c2cc1OC
inactive: dose: 100.0 mg/kg/injection, schedule: Q04DX003 (ip), vehicle: suspension in saline 98 % of control | dose: 200.0 mg/kg/injection, schedule: Q04DX003 (ip), vehicle: suspension in saline 94 % of control | dose: 400.0 mg/kg/injection, schedule: Q04DX003 (ip), vehicle: suspension in saline 94 % of control

CC(C)(C)OC(=O)NC(CCCCNC(=O)C(F)(F)F)C(=O)O (configuration not stated)
inactive: dose: 50.0 mg/kg/injection, schedule: Q01DX009 (ip), vehicle: Klucel (hydroxypropylcellulose) (HPC) 108 % of control | dose: 100.0 mg/kg/injection, schedule: Q01DX009 (ip), vehicle: Klucel (hydroxypropylcellulose) (HPC) 104 % of control | dose: 200.0 mg/kg/injection, schedule: Q01DX009 (ip), vehicle: Klucel (hydroxypropylcellulose) (HPC) 102 % of control

ONc1ccc2c(c1)C1C(C3C2C2(Cl)C(Cl)=C(Cl)C3(Cl)C2(Cl)Cl)C2(Cl)C(Cl)=C(Cl)C1(Cl)C2(Cl)Cl (configuration not stated)
inactive: dose: 50.0 mg/kg/injection, schedule: Q01DX009 (ip), vehicle: saline 96 % of control | dose: 100.0 mg/kg/injection, schedule: Q01DX009 (ip), vehicle: saline 99 % of control | dose: 200.0 mg/kg/injection, schedule: Q01DX009 (ip), vehicle: saline 92 % of control

Cc1cc2cc3c4c(nn5nnnc5c4c2o1)-c1ccccc1CC3
inactive: [5] 92 % of control | [6] 86 % of control | [7] 95 % of control

CCCC[N+](CCCC)=c1ccc2nc3c(C)cc(N(CC)CC)cc3sc-2c1
inactive: dose: 0.75 mg/kg/injection, schedule: Q01DX005 (ip), vehicle: saline 111 % of control | dose: 1.5 mg/kg/injection, schedule: Q01DX005 (ip), vehicle: saline 112 % of control | dose: 3.0 mg/kg/injection, schedule: Q01DX005 (ip), vehicle: saline 118 % of control and 120 % of control

CC(CCc1nc2ccccc2[nH]1)c1nc2ccccc2[nH]1 (configuration not stated)
inactive: [4] 92 % of control | [5] 94 % of control | [6] 91 % of control | [7] 91 % of control

Cc1nc2ccccc2c(=O)n1/N=C\c1ccc2c(c1)CCC2
inactive: dose: 60.0 mg/kg/injection, schedule: Q01DX005 (ip), vehicle: Klucel (hydroxypropylcellulose) (HPC) 97 % of control | dose: 120.0 mg/kg/injection, schedule: Q01DX005 (ip), vehicle: Klucel (hydroxypropylcellulose) (HPC) 104 % of control | dose: 240.0 mg/kg/injection, schedule: Q01DX005 (ip), vehicle: Klucel (hydroxypropylcellulose) (HPC) 95 % of control

O=[N+]([O-])c1ccc(Sc2nc3ccccc3[nH]2)c(Cl)c1
inactive: [5] 99 % of control | [6] 100 % of control | [7] 117 % of control

CCCC(CC)(C(=O)Nc1ccc2nc(C)cc(N)c2c1)C(=O)Nc1ccc2nc(C)cc(N)c2c1
inactive: dose: 50.0 mg/kg/injection, schedule: Q01DX005 (ip), vehicle: saline with Tween-80 91 % of control | dose: 100.0 mg/kg/injection, schedule: Q01DX005 (ip), vehicle: saline with Tween-80 93 % of control

CC(C)CC(NC(=O)C(Cc1ccccc1)NC(=O)C1CCCN1)C(=O)OC(C)(C)C (stereo not drawn) (H-Pro-Phe-Leu-OtBu; configuration not given here)
inactive: [5] 102 % of control | [6] 94 % of control | [7] 94 % of control

CCOC(=O)N1OC2C=CC1CC2 (configuration not stated)
inactive: [1] 97 % of control | [2] 102 % of control | [3] 100 % of control
